From article PMC5512185 (International Journal for Parasitology: Drugs and Drug …, 2017)

Assays:
Human HepG2 = test: Cytotoxicity on HepG2 cells; assay type: cell-based; details: for CC50: read-out: CC50 Human HepG2, CC50 ± SD, 48 h; for SIh Selectivity Index (human HepG2): CC50 HepG2 / EC50 amastigotes
Murine Splenocytes = test: Cytotoxicity on uninfected ex vivo explants; assay type: cell-based, mouse; details: for SIS Selectivity Index (mouse splenocytes): CC50 non-infected mouse splenocytes / EC50 amastigotes; for CC50: read-out: CC50 Murine Splenocytes, CC50 ± SD, uninfected splenocytes, 48 h
Leishmania tubulin = Leishmania tubulin (Leishmania infantum, UniProt A0A381MCS3+A4HTR0); test: Tubulin polymerization assay; assay type: biochemical, L. infantum
Chain of Leishmania tubulin (A4HTR0 1-443): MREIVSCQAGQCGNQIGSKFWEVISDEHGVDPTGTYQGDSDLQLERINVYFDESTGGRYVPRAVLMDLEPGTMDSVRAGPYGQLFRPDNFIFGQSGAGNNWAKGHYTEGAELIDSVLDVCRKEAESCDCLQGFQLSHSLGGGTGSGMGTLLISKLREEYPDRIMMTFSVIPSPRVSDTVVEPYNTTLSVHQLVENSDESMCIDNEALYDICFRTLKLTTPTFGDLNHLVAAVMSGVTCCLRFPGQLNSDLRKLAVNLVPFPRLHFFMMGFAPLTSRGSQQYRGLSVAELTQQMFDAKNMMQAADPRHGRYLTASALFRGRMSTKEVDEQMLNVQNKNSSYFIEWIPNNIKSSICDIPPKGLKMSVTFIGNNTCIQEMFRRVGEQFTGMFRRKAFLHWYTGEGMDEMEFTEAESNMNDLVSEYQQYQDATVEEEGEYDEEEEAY
Chain of Leishmania tubulin (A0A381MCS3 1-451): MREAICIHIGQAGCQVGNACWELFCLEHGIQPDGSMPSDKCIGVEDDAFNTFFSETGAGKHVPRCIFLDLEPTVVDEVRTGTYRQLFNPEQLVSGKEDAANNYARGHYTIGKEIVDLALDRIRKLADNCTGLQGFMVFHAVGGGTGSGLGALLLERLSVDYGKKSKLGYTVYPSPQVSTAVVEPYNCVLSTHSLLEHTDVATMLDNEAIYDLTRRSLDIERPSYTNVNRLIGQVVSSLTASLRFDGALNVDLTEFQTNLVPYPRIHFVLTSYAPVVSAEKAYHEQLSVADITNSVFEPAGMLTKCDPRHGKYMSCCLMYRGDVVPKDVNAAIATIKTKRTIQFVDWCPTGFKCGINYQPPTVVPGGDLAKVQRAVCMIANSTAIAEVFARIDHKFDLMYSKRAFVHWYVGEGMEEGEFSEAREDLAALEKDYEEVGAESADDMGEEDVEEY

[1] = Cytotoxicity on HepG2 cells; assay type: cell-based, human; details: human, HepG2 cells (ATCC HB-8065)
[2] = Cytotoxicity on uninfected ex vivo explants; assay type: cell-based, mouse; details: mouse, uninfected ex vivo splenic explants (murine splenocytes)
[3] = tested on: L. infantum promastigotes; test: Promastigote in vitro assay; assay type: cell-based; details: Leishmania infantum, read-out: EC50 L. infantum promastigotes

Compound	CC50 (Human HepG2)	SIS Selectivity Index (mouse splenocytes) (Murine Splenocytes)	CC50 (Murine Splenocytes)	IC50 Leishmania tubulin polymerization inhibition (Leishmania tubulin; IC50 ± SD, 1.2 mg/mL tubulin, 37 °C)	CC50 at 48 h [1]	SIh Selectivity Index (human HepG2) (Human HepG2)	CC50 at 48 h [2]	EC50 [3]	CC50 at 48 h ([2]; BALB/c)	Inhibition of tubulin polymerization (Leishmania tubulin; 25 μM, positive control)
COc1cc([C@@H]2c3cc4c(cc3C[C@H]3COC(=O)[C@@H]32)OCO4)cc(OC)c1OC [Compound 1, deoxypodophyllotoxin]	> 100 µM	<1.0	98.6 ± 3.1 µM							
COc1cc([C@@H]2c3cc4c(cc3[C@H](O)[C@H]3COC(=O)[C@H]23)OCO4)cc(OC)c1OC [Compound 2a, podophyllotoxin]		>7.4		under the μM level	0.7 µM	0.1	> 100 µM	> 100 µM		
COc1cc([C@@H]2c3cc4c(cc3[C@@H](O)[C@H]3COC(=O)[C@H]23)OCO4)cc(OC)c1OC [Compound 2b, epipodophyllotoxin]					30.6 ± 2.1 µM	<0.3	> 100 µM	> 100 µM		
COc1cc([C@@H]2c3cc4c(cc3C(=O)[C@H]3COC(=O)[C@H]23)OCO4)cc(OC)c1OC [Compound 3, podophyllotoxone]	10.3 ± 0.9 µM	<0.6	60.6 ± 7.7 µM			<0.1				
COC(=O)[C@@H]1C(C=O)=Cc2cc3c(cc2[C@H]1c1cc(OC)c(OC)c(OC)c1)OCO3 [Compound 14, podophyllic aldehyde]		> 10.8			> 100 µM	>10.8		89.5 ± 4.3 µM	> 100 µM	
CCCCCCCCCCCCCCCCOP(=O)([O-])OCC[N+](C)(C)C [Miltefosine, miltefosine, reference compound]		26.9			50.4 ± 4.3 µM	21	64.7 ± 7 µM	5.9 ± 1.4 µM		
CC[C@]1(O)C[C@@H]2CN(CCc3c([nH]c4ccccc34)[C@@](C(=O)OC)(c3cc4c(cc3OC)N(C)[C@H]3[C@@](O)(C(=O)OC)[C@H](OC(C)=O)[C@]5(CC)C=CCN6CC[C@]43[C@@H]65)C2)C1 [Vinblastine, reference compound]										inhibits completely
